Source: the NIST ThermoML archive (doi:10.1016/j.tca.2014.05.028)

Experiment: xn = mol fraction of the nth substance listed
Conditions: 101 kPa, Liquid; for viscosity: Falling or rolling sphere viscometry; for mass density: Vibrating tube method

CCCCC[N+]1(C)CCCC1.[Br-] [1-methyl-1-pentylpyrrolidinium bromide] + O
Conditions	mass density [kg/m3]	viscosity [mPa·s]
298.15 K, x1 = 0.0313	1054.87	1.987
298.15 K, x1 = 0.0592	1089.64	3.402
298.15 K, x1 = 0.0944	1119.19	6.013
298.15 K, x1 = 0.1301	1139.59	10.08
298.15 K, x1 = 0.1566	1150.73	14.2
298.15 K, x1 = 0.1964	1163.63	22.59
298.15 K, x1 = 0.2468	1175.13	38.27
298.15 K, x1 = 0.3028	1184.58	66.43
298.15 K, x1 = 0.3503	1190.28	102.55
298.15 K, x1 = 0.4097	1195.59	175.43
298.15 K, x1 = 0.445	1198.37	241.18
298.15 K, x1 = 1	1188.96	–
303.15 K, x1 = 0.0313	1052.43	1.728
303.15 K, x1 = 0.0592	1086.59	2.903
303.15 K, x1 = 0.0944	1115.78	5.036
303.15 K, x1 = 0.1301	1136.1	8.404
303.15 K, x1 = 0.1566	1147.25	11.61
303.15 K, x1 = 0.1964	1160.15	18.05
303.15 K, x1 = 0.2468	1171.69	29.76
303.15 K, x1 = 0.3028	1181.21	50.36
303.15 K, x1 = 0.3503	1186.96	76.83
303.15 K, x1 = 0.4097	1192.35	128.64
303.15 K, x1 = 0.445	1195.15	173.72
303.15 K, x1 = 1	1185.14	–
308.15 K, x1 = 0.0313	1049.86	1.469
308.15 K, x1 = 0.0592	1083.44	2.433
308.15 K, x1 = 0.0944	1112.34	4.142
308.15 K, x1 = 0.1301	1132.57	6.871
308.15 K, x1 = 0.1566	1143.72	9.343
308.15 K, x1 = 0.1964	1156.64	14.22
308.15 K, x1 = 0.2468	1168.24	22.83
308.15 K, x1 = 0.3028	1177.83	37.83
308.15 K, x1 = 0.3503	1183.64	56.94
308.15 K, x1 = 0.4097	1189.09	93.53
308.15 K, x1 = 0.445	1191.92	124.68
308.15 K, x1 = 1	1181.35	–
313.15 K, x1 = 0.0313	1047.17	1.288
313.15 K, x1 = 0.0592	1080.23	2.104
313.15 K, x1 = 0.0944	1108.85	3.523
313.15 K, x1 = 0.1301	1129.01	5.794
313.15 K, x1 = 0.1566	1140.17	7.793
313.15 K, x1 = 0.1964	1153.12	11.62
313.15 K, x1 = 0.2468	1164.79	18.25
313.15 K, x1 = 0.3028	1174.44	29.54
313.15 K, x1 = 0.3503	1180.31	43.93
313.15 K, x1 = 0.4097	1185.82	70.78
313.15 K, x1 = 0.445	1188.67	94.43
313.15 K, x1 = 1	1177.58	–
318.15 K, x1 = 0.0313	1044.36	1.152
318.15 K, x1 = 0.0592	1076.94	1.849
318.15 K, x1 = 0.0944	1105.32	3.055
318.15 K, x1 = 0.1301	1125.43	4.98
318.15 K, x1 = 0.1566	1136.58	6.632
318.15 K, x1 = 0.1964	1149.57	9.734
318.15 K, x1 = 0.2468	1161.33	14.99
318.15 K, x1 = 0.3028	1171.04	23.75
318.15 K, x1 = 0.3503	1176.97	35.02
318.15 K, x1 = 0.4097	1182.56	55.19
318.15 K, x1 = 0.445	1185.43	73.04
318.15 K, x1 = 1	1173.84	–
323.15 K, x1 = 0.0313	1041.42	1.018
323.15 K, x1 = 0.0592	1073.59	1.61
323.15 K, x1 = 0.0944	1101.75	2.62
323.15 K, x1 = 0.1301	1121.81	4.239
323.15 K, x1 = 0.1566	1132.97	5.594
323.15 K, x1 = 0.1964	1146.01	8.098
323.15 K, x1 = 0.2468	1157.86	12.24
323.15 K, x1 = 0.3028	1167.63	19.02
323.15 K, x1 = 0.3503	1173.62	27.61
323.15 K, x1 = 0.4097	1179.3	43.02
323.15 K, x1 = 0.445	1182.19	56.06
323.15 K, x1 = 1	1170.12	–
328.15 K, x1 = 0.0313	1038.21	0.901
328.15 K, x1 = 0.0592	1070.18	1.406
328.15 K, x1 = 0.0944	1098.14	2.253
328.15 K, x1 = 0.1301	1118.16	3.594
328.15 K, x1 = 0.1566	1129.34	4.737
328.15 K, x1 = 0.1964	1142.42	6.779
328.15 K, x1 = 0.2468	1154.37	10.1
328.15 K, x1 = 0.3028	1164.2	15.38
328.15 K, x1 = 0.3503	1170.27	22.07
328.15 K, x1 = 0.4097	1176.04	33.82
328.15 K, x1 = 0.445	1178.95	43.84
328.15 K, x1 = 1	1166.42	–
333.15 K, x1 = 0.0313	1034.52	0.806
333.15 K, x1 = 0.0592	1066.7	1.238
333.15 K, x1 = 0.0944	1094.49	1.961
333.15 K, x1 = 0.1301	1114.49	3.084
333.15 K, x1 = 0.1566	1125.68	4.048
333.15 K, x1 = 0.1964	1138.81	5.734
333.15 K, x1 = 0.2468	1150.85	8.449
333.15 K, x1 = 0.3028	1160.77	12.68
333.15 K, x1 = 0.3503	1166.91	18.16
333.15 K, x1 = 0.4097	1172.78	27.16
333.15 K, x1 = 0.445	1175.7	35.05
333.15 K, x1 = 1	1162.75	–
338.15 K, x1 = 0.0313	1031.9	0.735
338.15 K, x1 = 0.0592	1063.16	1.117
338.15 K, x1 = 0.0944	1090.8	1.75
338.15 K, x1 = 0.1301	1110.78	2.707
338.15 K, x1 = 0.1566	1121.99	3.551
338.15 K, x1 = 0.1964	1135.18	4.983
338.15 K, x1 = 0.2468	1147.32	7.259
338.15 K, x1 = 0.3028	1157.32	10.76
338.15 K, x1 = 0.3503	1163.54	15.24
338.15 K, x1 = 0.4097	1169.46	22.53
338.15 K, x1 = 0.445	1172.45	28.48
338.15 K, x1 = 1	1159.1	–
343.15 K, x1 = 0.0313	1026.38	0.661
343.15 K, x1 = 0.0592	1059.56	0.991
343.15 K, x1 = 0.0944	1087.07	1.532
343.15 K, x1 = 0.1301	1107.04	2.328
343.15 K, x1 = 0.1566	1118.28	3.039
343.15 K, x1 = 0.1964	1131.53	4.253
343.15 K, x1 = 0.2468	1143.76	6.138
343.15 K, x1 = 0.3028	1153.87	9.006
343.15 K, x1 = 0.3503	1160.16	12.52
343.15 K, x1 = 0.4097	1166.21	18.43
343.15 K, x1 = 0.445	1169.19	22.9
343.15 K, x1 = 1	1155.48	–
